Data reported in ChEMBL document CHEMBL4507269, “Data for DCP probe BAY-386” (2021).

What was measured:
Conditions in all cases: Compound concentration 10.0 uM
[1] = molecular target: Melatonin receptor type 1A (Homo sapiens) (UniProt P48039); assay: Inhibition of Melatonin MT1 at 10 µM in the Eurofins-Panlabs radioligand binding assay (Eurofins_assay_251600); design: ligand concentration 0.05 nM
[2] = species: Oryctolagus cuniculus; assay: Inhibition of Purinergic P2X at 10 µM in the Eurofins-Panlabs radioligand binding assay (Eurofins_assay_268700); assay type: protein assay
[3] = molecular target: Kappa-type opioid receptor (Homo sapiens) (UniProt P41145)
Sequence of Kappa-type opioid receptor (Homo sapiens) (P41145 whole entry): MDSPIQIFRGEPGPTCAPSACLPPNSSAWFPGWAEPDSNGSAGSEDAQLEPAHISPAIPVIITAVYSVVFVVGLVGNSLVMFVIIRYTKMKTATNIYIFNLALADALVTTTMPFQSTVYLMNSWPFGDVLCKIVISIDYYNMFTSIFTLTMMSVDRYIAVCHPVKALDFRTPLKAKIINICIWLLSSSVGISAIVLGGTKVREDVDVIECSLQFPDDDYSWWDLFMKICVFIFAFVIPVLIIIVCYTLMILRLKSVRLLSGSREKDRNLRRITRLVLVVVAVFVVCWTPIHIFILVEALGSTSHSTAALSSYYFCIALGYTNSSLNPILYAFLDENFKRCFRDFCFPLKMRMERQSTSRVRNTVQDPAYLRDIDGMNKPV

[4] = molecular target: Histamine H3 receptor (Homo sapiens) (UniProt Q9Y5N1); assay: Histamine H3 Eurofins-Panlabs radioligand binding assay
Sequence of Histamine H3 receptor (Homo sapiens) (Q9Y5N1 whole entry): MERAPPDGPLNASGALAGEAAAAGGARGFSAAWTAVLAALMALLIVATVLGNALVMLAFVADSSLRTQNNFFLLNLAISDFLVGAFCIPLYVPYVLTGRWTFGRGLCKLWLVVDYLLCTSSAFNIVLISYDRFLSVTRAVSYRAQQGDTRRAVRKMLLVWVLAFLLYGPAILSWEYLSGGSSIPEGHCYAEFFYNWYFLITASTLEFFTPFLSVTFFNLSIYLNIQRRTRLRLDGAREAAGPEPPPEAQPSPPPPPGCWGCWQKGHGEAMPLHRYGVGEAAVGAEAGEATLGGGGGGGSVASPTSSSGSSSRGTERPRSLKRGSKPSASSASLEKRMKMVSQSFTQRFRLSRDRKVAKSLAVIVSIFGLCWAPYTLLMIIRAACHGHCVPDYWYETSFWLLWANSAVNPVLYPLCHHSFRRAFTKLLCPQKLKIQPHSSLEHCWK

[5] = molecular target: Sigma non-opioid intracellular receptor 1 (Homo sapiens) (UniProt Q99720); assay: Inhibition of Sigma 1 at 10 µM in the Eurofins-Panlabs radioligand binding assay (Eurofins_assay_278110); design: ligand concentration 8 nM
Sequence of Sigma non-opioid intracellular receptor 1 (Homo sapiens) (Q99720 whole entry): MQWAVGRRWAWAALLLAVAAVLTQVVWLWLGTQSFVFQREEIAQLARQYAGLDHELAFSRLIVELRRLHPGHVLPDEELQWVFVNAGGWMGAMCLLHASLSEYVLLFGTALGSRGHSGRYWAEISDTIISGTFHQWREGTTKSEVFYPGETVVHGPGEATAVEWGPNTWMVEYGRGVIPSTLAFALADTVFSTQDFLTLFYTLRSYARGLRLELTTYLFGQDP

[6] = molecular target: Mu-type opioid receptor (Homo sapiens) (UniProt P35372); assay: my(MOP) (h) Eurofins-Cerep Cellular and Nuclear Receptor Functional Assays
Sequence of Mu-type opioid receptor (Homo sapiens) (P35372 whole entry): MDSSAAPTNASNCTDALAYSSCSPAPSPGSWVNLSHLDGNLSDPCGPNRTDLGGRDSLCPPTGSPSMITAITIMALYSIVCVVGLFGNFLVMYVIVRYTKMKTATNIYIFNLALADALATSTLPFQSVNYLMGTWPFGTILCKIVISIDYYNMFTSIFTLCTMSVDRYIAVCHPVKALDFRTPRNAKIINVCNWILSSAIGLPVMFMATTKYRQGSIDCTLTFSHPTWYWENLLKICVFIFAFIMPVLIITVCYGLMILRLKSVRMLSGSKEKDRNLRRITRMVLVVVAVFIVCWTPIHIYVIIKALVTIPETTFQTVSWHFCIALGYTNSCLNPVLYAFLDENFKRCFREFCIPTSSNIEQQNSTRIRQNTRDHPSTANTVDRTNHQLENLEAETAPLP

[7] = molecular target: Mu-type opioid receptor (Homo sapiens) (UniProt P35372)
[8] = molecular target: Sodium-dependent dopamine transporter (Homo sapiens) (UniProt Q01959)
Sequence of Sodium-dependent dopamine transporter (Homo sapiens) (Q01959 whole entry): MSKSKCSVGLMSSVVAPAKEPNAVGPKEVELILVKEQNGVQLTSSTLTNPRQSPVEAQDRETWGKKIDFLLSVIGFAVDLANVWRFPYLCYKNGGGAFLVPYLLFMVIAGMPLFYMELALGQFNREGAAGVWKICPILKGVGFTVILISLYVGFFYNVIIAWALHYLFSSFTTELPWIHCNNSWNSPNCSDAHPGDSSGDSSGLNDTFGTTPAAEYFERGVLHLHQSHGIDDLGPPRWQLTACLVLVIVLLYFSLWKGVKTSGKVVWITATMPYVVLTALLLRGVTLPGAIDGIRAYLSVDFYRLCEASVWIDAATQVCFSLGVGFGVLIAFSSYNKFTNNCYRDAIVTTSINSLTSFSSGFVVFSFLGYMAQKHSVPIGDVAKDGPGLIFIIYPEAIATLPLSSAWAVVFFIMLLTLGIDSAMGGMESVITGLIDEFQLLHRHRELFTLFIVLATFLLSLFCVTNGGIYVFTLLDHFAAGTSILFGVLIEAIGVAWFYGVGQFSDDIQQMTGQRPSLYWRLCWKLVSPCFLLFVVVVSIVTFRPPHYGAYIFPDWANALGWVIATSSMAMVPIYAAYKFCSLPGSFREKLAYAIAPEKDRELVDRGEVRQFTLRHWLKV

[9] = molecular target: Glucocorticoid receptor (Homo sapiens) (UniProt P04150); assay: Glucocorticoid Eurofins-Panlabs radioligand binding assay
Sequence of Glucocorticoid receptor (Homo sapiens) (P04150 whole entry): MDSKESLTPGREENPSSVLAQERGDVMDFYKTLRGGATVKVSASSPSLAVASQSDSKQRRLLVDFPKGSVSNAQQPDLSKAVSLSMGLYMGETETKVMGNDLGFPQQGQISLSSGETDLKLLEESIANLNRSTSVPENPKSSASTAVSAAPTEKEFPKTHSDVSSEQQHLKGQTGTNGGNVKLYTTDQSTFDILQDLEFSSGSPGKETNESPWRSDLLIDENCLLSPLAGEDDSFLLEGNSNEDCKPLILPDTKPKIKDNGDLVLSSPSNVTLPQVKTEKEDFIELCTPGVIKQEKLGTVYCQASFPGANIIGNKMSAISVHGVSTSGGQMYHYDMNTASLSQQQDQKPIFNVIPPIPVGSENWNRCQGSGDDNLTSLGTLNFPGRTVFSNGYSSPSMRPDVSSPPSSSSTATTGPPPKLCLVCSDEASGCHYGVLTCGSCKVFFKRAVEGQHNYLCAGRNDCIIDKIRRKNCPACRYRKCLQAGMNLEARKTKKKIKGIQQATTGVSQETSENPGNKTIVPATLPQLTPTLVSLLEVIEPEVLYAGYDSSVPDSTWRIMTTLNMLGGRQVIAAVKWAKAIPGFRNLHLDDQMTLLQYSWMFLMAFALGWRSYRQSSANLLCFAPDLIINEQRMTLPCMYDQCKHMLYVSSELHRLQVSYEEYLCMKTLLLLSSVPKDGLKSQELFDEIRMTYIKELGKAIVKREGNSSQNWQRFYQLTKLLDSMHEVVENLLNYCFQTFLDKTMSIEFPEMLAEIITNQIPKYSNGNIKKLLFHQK

[10] = molecular target: T1, Alpha-2A adrenergic receptor (Homo sapiens) (UniProt P08913); assay: Adrenergic alpha2A Eurofins-Panlabs radioligand binding assay; design: ligand concentration 1 nM, non-specific ligand with concentration 10 µM WB-4101, incubation time 60 min, incubation temperature 25 °C
T1 sequence (whole entry): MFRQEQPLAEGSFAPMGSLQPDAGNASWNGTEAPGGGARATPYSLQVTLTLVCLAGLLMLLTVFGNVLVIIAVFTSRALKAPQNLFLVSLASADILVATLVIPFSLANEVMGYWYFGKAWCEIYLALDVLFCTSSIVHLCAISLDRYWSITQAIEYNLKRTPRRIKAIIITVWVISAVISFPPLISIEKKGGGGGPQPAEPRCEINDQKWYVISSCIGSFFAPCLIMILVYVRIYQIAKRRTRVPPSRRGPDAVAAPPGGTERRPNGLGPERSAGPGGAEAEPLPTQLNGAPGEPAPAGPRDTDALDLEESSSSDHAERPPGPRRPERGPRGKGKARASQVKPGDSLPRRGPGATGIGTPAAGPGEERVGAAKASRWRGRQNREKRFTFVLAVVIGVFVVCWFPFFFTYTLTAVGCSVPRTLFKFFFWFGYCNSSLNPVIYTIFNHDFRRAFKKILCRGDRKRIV

[11] = molecular target: 5-hydroxytryptamine receptor 5A (Homo sapiens) (UniProt P47898)
Sequence of 5-hydroxytryptamine receptor 5A (Homo sapiens) (P47898 whole entry): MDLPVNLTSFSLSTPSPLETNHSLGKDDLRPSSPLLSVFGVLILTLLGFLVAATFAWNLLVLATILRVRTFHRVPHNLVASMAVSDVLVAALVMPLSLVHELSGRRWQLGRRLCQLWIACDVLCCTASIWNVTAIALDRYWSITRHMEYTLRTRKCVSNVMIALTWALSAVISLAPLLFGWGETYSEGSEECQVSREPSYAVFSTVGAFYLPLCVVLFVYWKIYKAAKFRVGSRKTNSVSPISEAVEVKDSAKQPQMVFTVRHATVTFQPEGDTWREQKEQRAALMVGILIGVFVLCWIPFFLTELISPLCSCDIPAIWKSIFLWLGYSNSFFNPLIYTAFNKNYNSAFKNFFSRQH

Sequence of Melatonin receptor type 1A (Homo sapiens) (P48039 whole entry): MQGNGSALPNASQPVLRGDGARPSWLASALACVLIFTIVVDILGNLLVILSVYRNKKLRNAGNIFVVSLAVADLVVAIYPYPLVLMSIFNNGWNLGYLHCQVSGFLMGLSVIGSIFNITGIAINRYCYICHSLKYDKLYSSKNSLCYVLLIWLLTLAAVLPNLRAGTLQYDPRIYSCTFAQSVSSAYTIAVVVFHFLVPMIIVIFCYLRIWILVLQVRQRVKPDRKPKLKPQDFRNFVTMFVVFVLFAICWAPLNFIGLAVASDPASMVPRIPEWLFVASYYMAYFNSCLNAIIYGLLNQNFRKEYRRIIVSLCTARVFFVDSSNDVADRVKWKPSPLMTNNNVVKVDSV

**Q.** With O=C(N1CCS(=O)(=O)CC1)N1C[C@H](c2ccc(OC(F)(F)F)cc2)C[C@H](c2nc(C3CC3)no2)C1 [BAY-386] as the molecule, how does the inhibition [1] read?
**A.** Its inhibition is 14%.

**Q.** What about the inhibition [2] of the same molecule?
**A.** Its inhibition is 9%.

**Q.** What about the inhibition [3] of the same molecule?
**A.** Its inhibition is -3%.

**Q.** What about the inhibition [4] of the same molecule?
**A.** The inhibition was -3%.

**Q.** What about the inhibition [5] of the same molecule?
**A.** The inhibition was 16%.

**Q.** And the % Inhibition of Control Agonist Response (Mean n=2) [6]?
**A.** Its % Inhibition of Control Agonist Response (Mean n=2) is 3.7%.

**Q.** What about the % of Control Agonist Response (Mean n=2) [6] of the same molecule?
**A.** The % of Control Agonist Response (Mean n=2) was 1%.

**Q.** What about the inhibition [7] of the same molecule?
**A.** The inhibition was 6%.

**Q.** What about the inhibition [8] of the same molecule?
**A.** Its inhibition is 10%.

**Q.** And the inhibition [9]?
**A.** Its inhibition is 9%.

**Q.** What about the inhibition [10] of the same molecule?
**A.** Its inhibition is 8%.

**Q.** And the inhibition [11]?
**A.** Its inhibition is 10%.
